# Assay results taken from ChEMBL document CHEMBL3232814, “Synthesis and anticancer structure activity relationship investigation of cationic anthraquinone analogs” (2014).
# How the values were obtained:
# Type in all cases: functional
# SK-MEL-28 = assay: Growth inhibition of human SK-MEL-28 cells; conditions: for CC50: read-out: LC50 (the source's name)
# NCI-H522 = assay: Growth inhibition of human NCI-H522 cells; conditions: for CC50: read-out: LC50 (the source's name)
# SK-MEL-2 = assay: Growth inhibition of human SK-MEL-2 cells; conditions: for CC50: read-out: LC50 (the source's name)
# SW-620 = assay: Growth inhibition of human SW620 cells; conditions: for CC50: read-out: LC50 (the source's name)
# Malme-3M = assay: Growth inhibition of human MALME-3M cells; conditions: for CC50: read-out: LC50 (the source's name)
# Staphylococcus aureus = assay: Antimicrobial activity against Staphylococcus aureus ATCC 25923 after 12 to 18 hrs by 2-fold serial dilution method
# HCT-116 = assay: Growth inhibition of human HCT116 cells; conditions: for CC50: read-out: LC50 (the source's name)
# NCI-H226 = assay: Growth inhibition of human NCI-H226 cells; conditions: for CC50: read-out: LC50 (the source's name)
# SNB-19 = assay: Growth inhibition of human SNB19 cells
# [1] = Growth inhibition of human SF295 cells; conditions: SF-295
# COLO 205 = assay: Growth inhibition of human COLO205 cells; conditions: for CC50: read-out: LC50 (the source's name)
# [2] = Growth inhibition of human NCI60 cells assessed as cell growth; parameters: concentration or dose not given beside the values
# [3] = Growth inhibition of human UACC62 cells; conditions: for GI50: UACC-62; for CC50: UACC-62, read-out: LC50 (the source's name)
# NCI-H23 = assay: Growth inhibition of human NCI-H23 cells
# [4] = Growth inhibition of human HCT15 cells; conditions: HCT-15
# NCI-H460 = assay: Growth inhibition of human NCI-H460 cells; conditions: for CC50: read-out: LC50 (the source's name)
# [5] = Growth inhibition of human SF539 cells; conditions: for GI50: SF-539; for CC50: SF-539, read-out: LC50 (the source's name)
# SK-MEL-5 = assay: Growth inhibition of human SK-MEL-5 cells
# [6] = Growth inhibition of human HCC2998 cells; conditions: for GI50: HCC 2998; for CC50: HCC 2998, read-out: LC50 (the source's name)
# [7] = Growth inhibition of human HOP92 cells; conditions: for GI50: HOP-92; for CC50: HOP-92, read-out: LC50 (the source's name)
# KM12 = assay: Growth inhibition of human KM12 cells; conditions: for CC50: read-out: LC50 (the source's name)
# [8] = Growth inhibition of human LOXIMVI cells; conditions: LOX IMVI; for CC50: read-out: LC50 (the source's name)
# U-251 = assay: Growth inhibition of human U251 cells
# [9] = Growth inhibition of human UACC257 cells; conditions: for GI50: UACC-257; for CC50: UACC-257, read-out: LC50 (the source's name)
# MDA-MB-435 = assay: Growth inhibition of human MDA-MB-435 cells
# A549 = assay: Growth inhibition of human A549 cells; conditions: for CC50: read-out: LC50 (the source's name)
# HT-29 = assay: Growth inhibition of human HT-29 cells
# HOP-62 = assay: Growth inhibition of human HOP62 cells; conditions: for CC50: read-out: LC50 (the source's name)
# NCI-H322M = assay: Growth inhibition of human NCI-H322M cells; conditions: for CC50: read-out: LC50 (the source's name)
# SNB-75 = assay: Growth inhibition of human SNB75 cells; conditions: for CC50: read-out: LC50 (the source's name)
# SF-268 = assay: Growth inhibition of human SF268 cells; conditions: for CC50: read-out: LC50 (the source's name)
# M14 = assay: Growth inhibition of human M14 cells; conditions: for CC50: read-out: LC50 (the source's name)
# [10] = read-out: LC50 (the source's name)
compound,measurement,setting,value
COc1cc(OC)cc(-n2n[n+](C)c3c2C(=O)c2ccccc2C3=O)c1.O=S(=O)([O-])C(F)(F)F,GI50,SK-MEL-28,3.2 µM
same,CC50,SK-MEL-28,43.3 µM
same,GI50,NCI-H522,2.54 µM
same,CC50,NCI-H522,29.2 µM
same,GI50,SK-MEL-2,2.08 µM
same,CC50,SK-MEL-2,12.4 µM
same,GI50,SW-620,3 µM
same,CC50,SW-620,> 100 µM
same,GI50,Malme-3M,0.41 µM
same,CC50,Malme-3M,3.72 µM
same,MIC,Staphylococcus aureus,16 µg/mL
same,GI50,HCT-116,2.66 µM
same,CC50,HCT-116,48.6 µM
same,GI50,NCI-H226,1.74 µM
same,CC50,NCI-H226,7.76 µM
same,GI50,SNB-19,1.25 µM
same,LC50,SNB-19,5.1 µM
same,GI50,[1],0.18 µM
same,LC50 (concentration killing 50% of cells),[1],0.61 µM
same,GI50,COLO 205,0.4 µM
same,CC50,COLO 205,5.35 µM
same,Activity,[2],23.23%
same,GI50,[3],1.41 µM
same,CC50,[3],5.89 µM
same,GI50,NCI-H23,1.26 µM
same,CC50,NCI-H23; [10],> 100 µM
same,GI50,[4],1.61 µM
same,GI50,NCI-H460,0.56 µM
same,CC50,NCI-H460,8.01 µM
same,GI50,[5],1.64 µM
same,CC50,[5],5.6 µM
same,GI50,SK-MEL-5,0.18 µM
same,LC50 (lethal concentration 50),SK-MEL-5,0.66 µM
same,GI50,[6],1.5 µM
same,CC50,[6],8.99 µM
same,GI50,[7],7.07 µM
same,CC50,[7],> 100 µM
same,GI50,KM12,3.11 µM
same,CC50,KM12,42.9 µM
same,GI50,[8],1.71 µM
same,CC50,[8],7.09 µM
same,GI50,U-251,1.53 µM
same,LC50,U-251,5.54 µM
same,GI50,[9],1.2 µM
same,CC50,[9],5.3 µM
same,GI50,MDA-MB-435,0.31 µM
same,GI50,A549,0.78 µM
same,CC50,A549,8.81 µM
same,GI50,HT-29,1.1 µM
same,LC50,HT-29,> 100 µM
same,GI50,HOP-62,1.51 µM
same,CC50,HOP-62,6.08 µM
same,GI50,NCI-H322M,0.36 µM
same,CC50,NCI-H322M,3.68 µM
same,GI50,SNB-75,1.63 µM
same,CC50,SNB-75,5.47 µM
same,GI50,SF-268,3.68 µM
same,CC50,SF-268,> 100 µM
same,GI50,M14,0.5 µM
same,CC50,M14,4.37 µM
COc1cc(-n2n[n+](C)c3c2C(=O)c2ccccc2C3=O)cc(OC)c1OC.O=S(=O)([O-])C(F)(F)F,GI50,SK-MEL-28,1.37 µM
same,CC50,SK-MEL-28,7.11 µM
same,GI50,NCI-H522,1.71 µM
same,CC50,NCI-H522,8.38 µM
same,GI50,SK-MEL-2,1.75 µM
same,CC50,SK-MEL-2,8.09 µM
same,GI50,SW-620,1.99 µM
same,CC50,SW-620,> 100 µM
same,GI50,Malme-3M,0.3 µM
same,CC50,Malme-3M,3.26 µM
same,MIC,Staphylococcus aureus,32 µg/mL
same,GI50,HCT-116,0.46 µM
same,CC50,HCT-116,18 µM
same,GI50,NCI-H226,1.8 µM
same,CC50,NCI-H226,18 µM
same,GI50,SNB-19,1.4 µM
same,LC50,SNB-19,6.99 µM
same,GI50,[1],0.54 µM
same,LC50 (concentration killing 50% of cells),[1],4.67 µM
same,GI50,COLO 205,0.39 µM
same,CC50,COLO 205,5.05 µM
same,Activity,[2],-27.06%
same,GI50,[3],1.23 µM
same,CC50,[3],6.12 µM
same,GI50,NCI-H23,1.94 µM
same,GI50,[4],1.35 µM
same,GI50,NCI-H460,0.79 µM
same,CC50,NCI-H460,> 100 µM
same,GI50,[5],0.4 µM
same,CC50,[5],3.8 µM
same,GI50,SK-MEL-5,0.24 µM
same,LC50 (lethal concentration 50),SK-MEL-5,2.32 µM
same,GI50,[6],1.63 µM
same,CC50,[6],8.22 µM
same,GI50,[7],1.92 µM
same,CC50,[7],> 100 µM
same,GI50,KM12,2.11 µM
same,CC50,KM12,> 100 µM
same,GI50,[8],1.19 µM
same,CC50,[8],> 100 µM
same,GI50,U-251,1.54 µM
same,LC50,U-251,5.52 µM
same,GI50,[9],1.37 µM
same,CC50,[9],5.81 µM
same,GI50,MDA-MB-435,0.19 µM
same,CC50,MDA-MB-435; [10],0.67 µM
same,GI50,A549,1.68 µM
same,CC50,A549,> 100 µM
same,GI50,HT-29,0.34 µM
same,LC50,HT-29,> 100 µM
same,GI50,HOP-62,1.31 µM
same,CC50,HOP-62,7.22 µM
same,GI50,NCI-H322M,0.4 µM
same,CC50,NCI-H322M,5.27 µM
same,GI50,SNB-75,1.43 µM
same,CC50,SNB-75,5.34 µM
same,GI50,SF-268,0.87 µM
same,CC50,SF-268,> 100 µM
same,GI50,M14,0.48 µM
same,CC50,M14,4.51 µM
